Starred links: 1 amine or outer side, 2 acyl side, 3 side chain; linkers in the order of their positions; H or OH if unused. Positions of bridges follow the written chain, without caps; N, C: chain ends. Non-standard residues stand in square brackets, D forms with d. Residues, ends and D or L forms follow the SMILES beside them. Groups on a side chain read outwards from the residue. *: point of attachment. Meglumine = CN(C[C@H](O)[C@@H](O)[C@H](O)[C@H](O)CO)*; Piperazinyl(4-CH2COOH) = O=C(O)CN1CCN(*)CC1; 1Nal = N[C@@H](Cc1cccc2ccccc12)C(=O)O; Gly(NCH2CH2Ph) = O=C(O)CNCCc1ccccc1; 4Pal = N[C@@H](Cc1ccncc1)C(=O)O; CO = O=C([*:1])[*:2]
What was measured:
[1] = target: T1, recombinant human TGF-β1 (Homo sapiens, UniProt P01137); assay: SPR intermolecular interaction test, TGF-β1 immobilized on CM3 sensor chip (Biacore T200); format: binding; details: Single Cycle Kinetics, human TGF-β1
T1 construct: purchased R&D systems
Experimental: In this Example, (1) the activity of binding to TGF-β for various peptides consisting of the amino acid sequences set forth in SEQ ID NOs: 2-33 synthesized in Examples 1 to 5 and 7 was evaluated. (2) The activity and selectivity of binding of the peptide consisting of the amino acid sequence set forth in SEQ ID NO: 13 synthesized in Example 2 against two isoforms of TGF-β (TGF-β1 and β2) were checked. For this purpose, the intermolecular interaction of each peptide against TGF-β was tested by surface plasmon resonance (SPR) in the method described below. Specific test methods are described below.
A CM3 sensor chip (Global Life Science Technologies Japan Co., Ltd.) was inserted into a BiacoreT200 (Global Life Science Technologies Japan Co., Ltd.). Three priming runs were performed using running buffer: HBS-EP+ (Global Life Science Technologies Japan Co., Ltd.). The system was then equilibrated at a flow rate of 30 μL/min.
Subsequently, 50 μL of 60 mM EDC solution (Global Life Science Technologies Japan Co., Ltd.) and 50 μL of 650 mM NHS solution (Global Life Science Technologies Japan Co., Ltd.) were mixed. Next, the reaction was carried out at a flow rate of 10 μL/min for 420 seconds. Then, 150 μL of 0.2 μM TGF-β solution diluted in 10 mM acetic acid solution (pH 5.0) was prepared and reacted at a flow rate of 10 μL/min for 420 seconds to immobilize TGF-β on the CM3 sensor chip. TGF-β was human-derived TGF-β1 or β2 (recombinant human TGF-β1, 2) and was obtained from R&D systems. After immobilization, capping was performed by reacting with 1.0 M ethanolamine aqueous solution (Global Life Science Technologies Japan Co., Ltd.) at a flow rate of […] for 420 seconds.
A liquid prepared by dissolving each peptide at 10 mM in DMSO solution was diluted with running buffer to prepare a peptide-dissolved solution at a final concentration of 10 μM. Subsequently, 50 nM, 25 nM, 12.5 nM, 5 nM, and 2.5 nM peptide solutions were prepared. Using the above samples, the kinetics of each peptide against TGF-β was obtained by SPR measurement.
The kinetics evaluation model was Single Cycle Kinetics, and curve fitting was performed using Biacore T200 Evaluation Software Version 3.0 (Global Life Science Technologies Japan Co., Ltd.). The binding of various peptides to TGF-β was evaluated by performing least-squares curve fitting on the obtained sensorgram to calculate the KD value.

[2] = target: T1, recombinant human TGF-β1; assay: SBE reporter assay in SBE reporter-HEK293 cells, TGF-β1 stimulation; format: cell-based; details: TGF-β1 0.13 nM, 18 hours; for inhibition at 62 pM: peptide 0.062 nM; for inhibition at 0.000185 µM: peptide 0.185 nM; for inhibition at 0.00056 µM: peptide 0.56 nM; for inhibition at 0.0017 µM: peptide 1.7 nM; for inhibition at 0.005 µM: peptide 5.0 nM; for inhibition at 0.015 µM: peptide 15.0 nM
Procedure, shortened: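 SBE luciferase reporter HEK293 cells in 0.5% FBS medium, preincubated 20 min with peptide, then stimulated 18 h with 0.13 nM recombinant human TGF-β1. Luminescence read; inhibition scaled with maximal TGF-β signal as 0% and unstimulated as 100%.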

T1 sequence (P01137 279-390 limits assumed): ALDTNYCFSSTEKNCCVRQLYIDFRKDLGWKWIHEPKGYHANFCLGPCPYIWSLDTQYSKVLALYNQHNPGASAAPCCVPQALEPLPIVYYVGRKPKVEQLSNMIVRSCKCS

Row | Structure (SMILES) | Kd [1] [nM] | inhibition at 62 pM [2] [%] | inhibition at 0.000185 µM [2] [%] | inhibition at 0.00056 µM [2] [%] | inhibition at 0.0017 µM [2] [%] | inhibition at 0.005 µM [2] [%] | inhibition at 0.015 µM [2] [%]
1 | CC(C)[C@@H]1NC(=O)CN(CCc2ccccc2)C(=O)[C@H](CC(=O)O)NC(=O)[C@H](CC(=O)O)NC(=O)[C@H](Cc2ccncc2)NC(=O)[C@H](C(C)C)NC(=O)[C@H](CC(N)=O)NC(=O)[C@H](CCCCNC(=O)N(C)C[C@H](O)[C@@H](O)[C@H](O)[C@H](O)CO)NC(=O)[C@H](C(C)C)NC(=O)[C@H](Cc2cccc3ccccc23)NC(=O)[C@H](Cc2ccccc2)NC(=O)CSC[C@@H](C(=O)NCC(N)=O)NC(=O)[C@H](CCCCNC(=O)N2CCN(CC(=O)O)CC2)NC(=O)[C@H](Cc2c[nH]cn2)NC(=O)[C@H](Cc2ccc(O)cc2)NC(=O)[C@H](Cc2cccc3ccccc23)NC1=O [TGFb1_020] ({CH2CO}-F[1Nal]VK([CO-Meglumine])NV[4Pal]DD[Gly(NCH2CH2Ph)]V[1Nal]YHK([CO-Piperazinyl(4-CH2COOH)])CG-NH2; thioether N-16) | 1.26 | 8.5 | 15.8 | 36.3 | 70.4 | 89.3 | 96.9
2 | CC(C)[C@@H]1NC(=O)CN(CCc2ccccc2)C(=O)[C@H](CCC(=O)O)NC(=O)[C@H](CC(=O)O)NC(=O)[C@H](Cc2ccncc2)NC(=O)[C@H](C(C)C)NC(=O)[C@H](CC(N)=O)NC(=O)[C@H](CCCCNC(=O)N(C)C[C@H](O)[C@@H](O)[C@H](O)[C@H](O)CO)NC(=O)[C@H](C(C)C)NC(=O)[C@H](Cc2cccc3ccccc23)NC(=O)[C@H](Cc2ccccc2)NC(=O)CSC[C@@H](C(=O)NCC(N)=O)NC(=O)[C@H](CCCCNC(=O)N2CCN(CC(=O)O)CC2)NC(=O)[C@H](Cc2c[nH]cn2)NC(=O)[C@H](Cc2ccc(O)cc2)NC(=O)[C@H](Cc2cccc3ccccc23)NC1=O [TGFb1_024] ({CH2CO}-F[1Nal]VK([CO-Meglumine])NV[4Pal]DE[Gly(NCH2CH2Ph)]V[1Nal]YHK([CO-Piperazinyl(4-CH2COOH)])CG-NH2; thioether N-16) | 1.04 | 5.79 | 16.6 | 45 | 80.2 | 95.5 | 98.9
3 | CC(C)[C@@H]1NC(=O)CN(CCc2ccccc2)C(=O)[C@H](CCCCNC(=O)N(C)C[C@H](O)[C@@H](O)[C@H](O)[C@H](O)CO)NC(=O)[C@H](CC(=O)O)NC(=O)[C@H](Cc2ccncc2)NC(=O)[C@H](C(C)C)NC(=O)[C@H](CC(N)=O)NC(=O)[C@H](CCCCNC(=O)N(C)C[C@H](O)[C@@H](O)[C@H](O)[C@H](O)CO)NC(=O)[C@H](C(C)C)NC(=O)[C@H](Cc2cccc3ccccc23)NC(=O)[C@H](Cc2ccccc2)NC(=O)CSC[C@@H](C(=O)NCC(N)=O)NC(=O)[C@H](CCC(=O)O)NC(=O)[C@H](Cc2c[nH]cn2)NC(=O)[C@H](Cc2ccc(O)cc2)NC(=O)[C@H](Cc2cccc3ccccc23)NC1=O [TGFb1_030] ({CH2CO}-F[1Nal]VK([CO-Meglumine])NV[4Pal]DK([CO-Meglumine])[Gly(NCH2CH2Ph)]V[1Nal]YHECG-NH2; thioether N-16) | 1.13 | 10.9 | 14.3 | 29.9 | 52.5 | 80.8 | 95.2

Now from value to compound:

Row | Kd [1] [nM] | inhibition at 62 pM [2] [%] | inhibition at 0.000185 µM [2] [%] | inhibition at 0.00056 µM [2] [%] | inhibition at 0.0017 µM [2] [%] | inhibition at 0.005 µM [2] [%] | inhibition at 0.015 µM [2] [%] | Structure (SMILES)
4 | 0.91 | 6.49 | 20.8 | 53.8 | 85.2 | 97.1 | 99.5 | CC(C)[C@@H]1NC(=O)CN(CCc2ccccc2)C(=O)[C@H](CCCCNC(=O)N2CCN(CC(=O)O)CC2)NC(=O)[C@H](CC(=O)O)NC(=O)[C@H](Cc2ccncc2)NC(=O)[C@H](C(C)C)NC(=O)[C@H](CC(N)=O)NC(=O)[C@H](C(C)C)NC(=O)[C@H](C(C)C)NC(=O)[C@H](Cc2cccc3ccccc23)NC(=O)[C@H](Cc2ccccc2)NC(=O)CSC[C@@H](C(=O)NCC(N)=O)NC(=O)[C@H](CCCCNC(=O)N2CCN(CC(=O)O)CC2)NC(=O)[C@H](Cc2c[nH]cn2)NC(=O)[C@H](Cc2ccc(O)cc2)NC(=O)[C@H](Cc2cccc3ccccc23)NC1=O [TGFb1_022] ({CH2CO}-F[1Nal]VVNV[4Pal]DK([CO-Piperazinyl(4-CH2COOH)])[Gly(NCH2CH2Ph)]V[1Nal]YHK([CO-Piperazinyl(4-CH2COOH)])CG-NH2; thioether N-16)
5 | 1.04 | 8.58 | 24.4 | 49.7 | 82.3 | 96 | 99.5 | CC(C)[C@@H]1NC(=O)CN(CCc2ccccc2)C(=O)[C@H](CCCCNC(=O)N(C)C[C@H](O)[C@@H](O)[C@H](O)[C@H](O)CO)NC(=O)[C@H](CC(=O)O)NC(=O)[C@H](Cc2ccncc2)NC(=O)[C@H](C(C)C)NC(=O)[C@H](CC(N)=O)NC(=O)[C@H](C(C)C)NC(=O)[C@H](C(C)C)NC(=O)[C@H](Cc2cccc3ccccc23)NC(=O)[C@H](Cc2ccccc2)NC(=O)CSC[C@@H](C(=O)NCC(N)=O)NC(=O)[C@H](CCCCNC(=O)N2CCN(CC(=O)O)CC2)NC(=O)[C@H](Cc2c[nH]cn2)NC(=O)[C@H](Cc2ccc(O)cc2)NC(=O)[C@H](Cc2cccc3ccccc23)NC1=O [TGFb1_023] ({CH2CO}-F[1Nal]VVNV[4Pal]DK([CO-Meglumine])[Gly(NCH2CH2Ph)]V[1Nal]YHK([CO-Piperazinyl(4-CH2COOH)])CG-NH2; thioether N-16)
6 | 0.83 | 4.81 | 18.4 | 43.3 | 77.5 | 94.7 | 99.4 | CC(C)[C@@H]1NC(=O)CN(CCc2ccccc2)C(=O)[C@H](CCCCNC(=O)N2CCN(CC(=O)O)CC2)NC(=O)[C@H](CC(=O)O)NC(=O)[C@H](Cc2ccncc2)NC(=O)[C@H](C(C)C)NC(=O)[C@H](CC(N)=O)NC(=O)[C@H](CCCCNC(=O)N(C)C[C@H](O)[C@@H](O)[C@H](O)[C@H](O)CO)NC(=O)[C@H](C(C)C)NC(=O)[C@H](Cc2cccc3ccccc23)NC(=O)[C@H](Cc2ccccc2)NC(=O)CSC[C@@H](C(=O)NCC(N)=O)NC(=O)[C@H](CCCCNC(=O)N2CCN(CC(=O)O)CC2)NC(=O)[C@H](Cc2c[nH]cn2)NC(=O)[C@H](Cc2ccc(O)cc2)NC(=O)[C@H](Cc2cccc3ccccc23)NC1=O [TGFb1_025] ({CH2CO}-F[1Nal]VK([CO-Meglumine])NV[4Pal]DK([CO-Piperazinyl(4-CH2COOH)])[Gly(NCH2CH2Ph)]V[1Nal]YHK([CO-Piperazinyl(4-CH2COOH)])CG-NH2; thioether N-16)
7 | 1.03 | 6.85 | 17.8 | 41.4 | 74.3 | 93.4 | 98 | CC(C)[C@@H]1NC(=O)CN(CCc2ccccc2)C(=O)[C@H](CCCCNC(=O)N(C)C[C@H](O)[C@@H](O)[C@H](O)[C@H](O)CO)NC(=O)[C@H](CC(=O)O)NC(=O)[C@H](Cc2ccncc2)NC(=O)[C@H](C(C)C)NC(=O)[C@H](CC(N)=O)NC(=O)[C@H](CCCCNC(=O)N(C)C[C@H](O)[C@@H](O)[C@H](O)[C@H](O)CO)NC(=O)[C@H](C(C)C)NC(=O)[C@H](Cc2cccc3ccccc23)NC(=O)[C@H](Cc2ccccc2)NC(=O)CSC[C@@H](C(=O)NCC(N)=O)NC(=O)[C@H](CCCCNC(=O)N2CCN(CC(=O)O)CC2)NC(=O)[C@H](Cc2c[nH]cn2)NC(=O)[C@H](Cc2ccc(O)cc2)NC(=O)[C@H](Cc2cccc3ccccc23)NC1=O [TGFb1_026] ({CH2CO}-F[1Nal]VK([CO-Meglumine])NV[4Pal]DK([CO-Meglumine])[Gly(NCH2CH2Ph)]V[1Nal]YHK([CO-Piperazinyl(4-CH2COOH)])CG-NH2; thioether N-16)

— US20250034212A1, “PEPTIDE” (PEPTIDREAM INC., priority 2021, published 2025)
